Data reported in patent US10138251B2, “Spiro[3H-indole-3,2′-pyrrolidin]-2(1H)-one compounds and derivatives as MDM2-P53 inhibitors” (Boehringer Ingelheim International GmbH, priority 2014, dated 2018).

Legend:
[1] = target: T1, MDM2 (Homo sapiens, UniProt Q00987); test: Mdm2-p53 Inhibition AlphaScreen; assay type: binding; details: 20 nM GST-MDM2 protein (aa 23-117), 20 nM biotinylated p53 wt peptide
T1 construct: 20 nM GST-MDM2 protein (aa 23-117)
Method: Mdm2-p53 Inhibition AlphaScreen
15 μL of compound in 20% DMSO (serial pre-dilutions of compound are done in 100% DMSO) is pipetted to the wells of a white OptiPlate-96 (PerkinElmer). A mix consisting of 20 nM GST-MDM2 protein (aa 23-117) and 20 nM biotinylated p53 wt peptide (encompassing aa 16-27 of wt human p53, amino acid sequence QETFSDLWKLLP-Ttds-Lys-Biotin, molecular weight 2132.56 g/mol) is prepared in assay buffer (50 mM Tris/HCl pH 7.2; 120 mM NaCl; 0.1% bovine serum albumin (BSA); 5 mM dithiothreitol (DTT); 1 mM ethylenediaminetetraacetic acid (EDTA); 0.01% Tween 20). 30 μL of the mix is added to the compound dilutions and incubated for 15 min at rt while gently shaking the plate at 300 rounds per minute (rpm). Subsequently, 15 μL of premixed AlphaLISA Glutathione Acceptor Beads and AlphaScreen Streptavidin Donor Beads from PerkinElmer (in assay buffer at a concentration of 10 μg/mL each) are added and the samples are incubated for 30 min at rt in the dark (shaking 300 rpm). Afterwards, the signal is measured in a PerkinElmer Envision HTS Multilabel Reader using the AlphaScreen protocol from PerkinElmer.
Each plate contains negative controls where biotinylated p53-peptide and GST-MDM2 are left out and replaced by assay buffer. Negative control values are entered as low basis value when using the software GraphPad Prism for calculations. Furthermore, a positive control (5% DMSO instead of test compound; with protein/peptide mix) is pipetted. Determination of IC50 values are carried out using GraphPad Prism 3.03 software (or updates thereof).

[2] = system: solid tumor xenograft models; details: Carol et al. 2013; cited from earlier work
[3] = system: acute lymphoblastic leukemia (ALL) xenograft models with mixed-lineage leukemia (MLL) rearrangement; details: Carol et al. 2013; cited from earlier work
[4] = system: human prostate tumor xenograft models harboring p53 wild-type; details: Tovar et al. 2013; cited from earlier work
[5] = system: human acute myeloid leukemia (AML) xenograft models harboring p53 wild-type; details: Tovar et al. 2013; cited from earlier work

T1 sequence (Q00987 23-117): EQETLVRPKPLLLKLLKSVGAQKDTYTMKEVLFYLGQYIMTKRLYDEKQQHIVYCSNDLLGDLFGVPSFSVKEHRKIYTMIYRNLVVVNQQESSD

With CC(=O)Nc1ccc(C(=O)N2CC[C@H]3C2[C@H](c2cccc(Cl)c2F)[C@]2(C(=O)Nc4cc(Cl)ccc42)N3CC2CC2)cc1 (some centres unmarked) [Compound I-82] the IC50 [1] was 389 nM.
For O=C(CCO)N1CC[C@H]2C1[C@H](c1cccc(Cl)c1F)[C@]1(C(=O)Nc3cc(Cl)ccc31)N2CC1CC1 (some centres unmarked) [Compound I-83], the IC50 [1] was 102 nM.
Work on CN(C)C(=O)CCC(=O)N1CC[C@H]2C1[C@H](c1cccc(Cl)c1F)[C@]1(C(=O)Nc3cc(Cl)ccc31)N2CC1CC1 (some centres unmarked) [Compound I-84] yielded an IC50 [1] of 107 nM.
With CN(C)c1cccc(C(=O)N2CC[C@H]3C2[C@H](c2cccc(Cl)c2F)[C@]2(C(=O)Nc4cc(Cl)ccc42)N3CC2CC2)c1 (some centres unmarked) [Compound I-87] the IC50 [1] was 607 nM.
Molecule CCOc1cccc(CN2[C@H]3CCN(C(C)=O)C3[C@H](c3cccc(Cl)c3F)[C@]23C(=O)Nc2cc(Cl)ccc23)c1 (some centres unmarked) [Compound I-88] has an IC50 [1] of 28 nM.
With CC(=O)N1CC[C@H]2C1[C@H](c1ccnc(Cl)c1F)[C@]1(C(=O)Nc3cc(Cl)ccc31)N2CC1CC1 (some centres unmarked) [Compound I-89] the IC50 [1] was 34 nM.
In the case of CCOc1cccc(CN2[C@H]3CCN(C(C)=O)C3[C@H](c3ccnc(Cl)c3F)[C@]23C(=O)Nc2cc(Cl)ccc23)c1 (some centres unmarked) [Compound I-90], the IC50 [1] is reported as 6 nM.
Molecule CCOc1cccc(CN2[C@H]3CCN(C(C)=O)C3[C@H](c3cccc(Cl)c3F)[C@]23C(=O)Nc2cc(Cl)ccc23)n1 (some centres unmarked) [Compound I-91] has an IC50 [1] of 180 nM.
For O=C(O)c1ccc(C(=O)N2CC[C@H]3C2[C@H](c2cccc(Cl)c2F)[C@]2(C(=O)Nc4cc(Cl)ccc42)N3CC2CC2)cc1 (some centres unmarked) [Compound I-92], the IC50 [1] was 106 nM.
Work on O=C(O)c1cccc(C(=O)N2CC[C@H]3C2[C@H](c2cccc(Cl)c2F)[C@]2(C(=O)Nc4cc(Cl)ccc42)N3CC2CC2)c1 (some centres unmarked) [Compound I-93] yielded an IC50 [1] of 377 nM.
For CCOc1cc(C(C)(C)C)ccc1C1=N[C@@](C)(c2ccc(Cl)cc2)[C@@](C)(c2ccc(Cl)cc2)N1C(=O)N1CCN(CCCS(C)(=O)=O)CC1 [RG7112], the tumor growth inhibition [2] is listed as “induced tumor growth inhibition”, the efficacy [3] is listed as “particularly efficacious” and the “antiproliferative and proapoptotic activity” value [4] is listed as “antiproliferative and proapoptotic activity”. For the same molecule, the “antiproliferative and proapoptotic activity” value [5] was “antiproliferative and proapoptotic activity”.
